Measured values taken from ChEMBL document CHEMBL1137928, “Plasmepsin II inhibition and antiplasmodial activity of Primaquine-Statine 'double-drugs'” (Bioorg Med Chem Lett, 2004).
pIC50, pKi: −log10 of the molar value.

Columns and labels:
Plasmodium falciparum [1] = assay: In vitro inhibitory activity against chloroquine-sensitive Plasmodium falciparum D10 infected human red blood cells; format: functional, organism-based
Plasmodium falciparum [2] = assay: In vitro inhibitory activity against chloroquine-resistant Plasmodium falciparum W-2 infected human erythrocytes; format: functional, organism-based
Plasmepsin II [3] = biological target: T1, Plasmepsin II (Plasmodium falciparum, UniProt P46925); assay: In vitro concentration required for inhibition of Plasmodium falciparum plasmepsin-2
Plasmepsin II [4] = biological target: T1, Plasmepsin II; assay: In vitro binding affinity towards Plasmodium falciparum plasmepsin-2
Plasmodium falciparum [5] = assay: In vitro inhibitory activity against chloroquine-resistant Plasmodium falciparum W2 infected human erythrocytes at 9 uM; format: functional
Plasmodium falciparum [6] = assay: In vitro inhibitory activity against chloroquine-sensitive Plasmodium falciparum D-10 infected human red blood cells at 9 uM; format: functional
Plasmodium falciparum [7] = assay: Inhibition of Plasmodium falciparum; format: functional, organism-based

T1 sequence (P46925 whole entry): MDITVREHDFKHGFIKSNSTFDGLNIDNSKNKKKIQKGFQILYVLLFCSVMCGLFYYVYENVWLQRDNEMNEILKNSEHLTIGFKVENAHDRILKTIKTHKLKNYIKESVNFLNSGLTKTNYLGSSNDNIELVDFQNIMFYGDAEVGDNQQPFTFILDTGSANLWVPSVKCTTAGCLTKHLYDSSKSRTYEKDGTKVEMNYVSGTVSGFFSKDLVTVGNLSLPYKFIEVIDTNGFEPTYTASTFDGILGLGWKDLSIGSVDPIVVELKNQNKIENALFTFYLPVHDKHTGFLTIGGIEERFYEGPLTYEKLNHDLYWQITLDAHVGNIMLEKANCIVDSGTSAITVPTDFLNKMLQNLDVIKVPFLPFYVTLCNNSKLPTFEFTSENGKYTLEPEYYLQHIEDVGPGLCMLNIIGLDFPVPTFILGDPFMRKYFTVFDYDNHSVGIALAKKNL

SMILES | pIC50 (Plasmodium falciparum [1]) | pIC50 (Plasmodium falciparum [2]) | pIC50 (Plasmepsin II [3]) | further results
CCCCNC(=O)C[C@H](O)[C@H](CC(C)C)NC(=O)[C@@H](NC(=O)c1ccc(Oc2ccc(C(=O)N[C@H](CC(C)C)C(=O)N[C@H](CCCCN)C(=O)NCCCC(C)Nc3cc(OC)cc4cccnc34)cc2)cc1)[C@H](C)CC (stereo partly specified) | 6.40 | 6.15 | 9.23 | 
CCCCNC(=O)C[C@H](O)[C@H](CC(C)C)NC(=O)[C@@H](NC(=O)c1ccc2cc(C(=O)N[C@H](CC(C)C)C(=O)N[C@H](CCCCN)C(=O)NCCCC(C)Nc3cc(OC)cc4cccnc34)ccc2c1)[C@H](C)CC (stereo partly specified) | 5.21 | 5.33 | 8.82 | 
CCCCNC(=O)C[C@H](O)[C@H](Cc1ccccc1)NC(=O)[C@@H](NC(=O)COc1ccc2ccccc2c1)[C@@H](C)CC |  |  |  | pKi (Plasmepsin II [4]): 6.96
CCCCNC(=O)C[C@H](O)[C@H](CC(C)C)NC(=O)[C@@H](NC(=O)CCC(=O)N[C@@H](CC(C)C)C(=O)N[C@@H](CCCCN)C(=O)NCCCC(C)Nc1cc(OC)cc2cccnc12)[C@H](C)CC (stereo partly specified) |  |  | 6.40 | inhibition at 9 µM (Plasmodium falciparum [5]): 40%; inhibition at 9 µM (Plasmodium falciparum [6]): 20%
CCCCNC(=O)C[C@H](O)[C@H](CC(C)C)NC(=O)[C@@H](NC(=O)COc1ccc2ccccc2c1)[C@@H](C)CC |  |  |  | pKi (Plasmepsin II [4]): 6.74
CCCCNC(=O)C[C@H](O)[C@H](CC(C)C)NC(=O)[C@@H](NC(=O)Cc1ccc(CC(=O)N[C@@H](CC(C)C)C(=O)N[C@@H](CCCCN)C(=O)NCCCC(C)Nc2cc(OC)cc3cccnc23)cc1)[C@H](C)CC (stereo partly specified) | 5.26 | 5.38 | 6.87 | 
CCCCNC(=O)C[C@H](O)[C@H](CC(C)C)NC(=O)[C@@H](NC(=O)c1ccc(Oc2ccc(C(=O)N[C@@H](CC(C)C)C(=O)O)cc2)cc1)C(C)CC (stereo partly specified) |  |  | 6.91 | pIC50 (Plasmodium falciparum [7]): ~4.77
CCCCNC(=O)C[C@H](O)[C@H](CC(C)C)NC(=O)[C@@H](NC(=O)c1ccc2cc(C(=O)OCCCC(=O)N[C@H](CC(C)C)C(=O)N[C@H](CCCCN)C(=O)NCCCC(C)Nc3cc(OC)cc4cccnc34)ccc2c1)[C@H](C)CC (stereo partly specified) | 5.48 | 6.00 | 8.02 | 
COc1cc(NC(C)CCCNC(=O)[C@@H](N)CCCCN)c2ncccc2c1 (stereo partly specified) |  |  | < 6.00 | pIC50 (Plasmodium falciparum [7]): ~4.70
